In PMC11003488 (Journal of Enzyme Inhibition and Medicinal Chemistry, 2023):

Experiments:
[1] = test system: SW-620; assay: NCI-60 SRB growth inhibition, one-dose and five-dose; format: cell-based; settings: Homo sapiens
[2] = test system: RPMI-8226; assay: as above; format: cell-based; settings: Homo sapiens
[3] = test system: HCT-15; assay: as above; format: cell-based; settings: Homo sapiens
[4] = test system: BT-549; assay: as above; format: cell-based; settings: Homo sapiens
[5] = test system: U251; assay: as above; format: cell-based; settings: Homo sapiens
[6] = test system: IGROV1; assay: as above; format: cell-based; settings: Homo sapiens
[7] = test system: OVCAR-3; assay: as above; format: cell-based; settings: Homo sapiens
[8] = test system: SK-MEL-5; assay: as above; format: cell-based; settings: Homo sapiens
[9] = test system: HT29; assay: as above; format: cell-based; settings: Homo sapiens
[10] = test system: SNB-75; assay: as above; format: cell-based; settings: Homo sapiens
[11] = test system: HL-60(TB); assay: cells; format: cell-based; settings: Homo sapiens
[12] = test system: T-47D; assay: NCI-60 SRB growth inhibition, one-dose and five-dose; format: cell-based; settings: Homo sapiens, T47D
[13] = test system: SNB-19; assay: as above; format: cell-based; settings: Homo sapiens
[14] = test system: SR; assay: as above; format: cell-based; settings: Homo sapiens
[15] = test system: NCI 60-cell line panel (full panel); assay: NCI-60 SRB growth inhibition, full panel mean / MG-MID; format: cell-based, human
[16] = test system: NCI-H460; assay: NCI-60 SRB growth inhibition, one-dose and five-dose; format: cell-based; settings: Homo sapiens
[17] = test system: DU-145; assay: as above; format: cell-based; settings: Homo sapiens
[18] = test system: KM12; assay: as above; format: cell-based; settings: Homo sapiens
[19] = test system: MCF7; assay: as above; format: cell-based; settings: Homo sapiens
[20] = test system: MDA-MB-468; assay: as above; format: cell-based; settings: Homo sapiens
[21] = test system: M14; assay: as above; format: cell-based; settings: Homo sapiens
[22] = test system: UACC-62; assay: as above; format: cell-based; settings: Homo sapiens
[23] = test system: HCT-116; assay: as above; format: cell-based; settings: Homo sapiens
[24] = test system: HS 578 T; assay: as above; format: cell-based; settings: Homo sapiens
[25] = test system: NCI-H226; assay: as above; format: cell-based; settings: Homo sapiens
[26] = test system: SN12C; assay: as above; format: cell-based; settings: Homo sapiens
[27] = test system: CCRF-CEM; assay: as above; format: cell-based; settings: Homo sapiens
[28] = test system: OVCAR-4; assay: as above; format: cell-based; settings: Homo sapiens
[29] = test system: A549/ATCC; assay: as above; format: cell-based; settings: Homo sapiens
[30] = test system: OVCAR-8; assay: as above; format: cell-based; settings: Homo sapiens, OVCAR-8, read-out: percent growth inhibition
[31] = test system: MDA-MB-435; assay: as above; format: cell-based; settings: Homo sapiens
[32] = test system: SF-268; assay: as above; format: cell-based; settings: Homo sapiens
[33] = test system: MALME-3M; assay: as above; format: cell-based; settings: Homo sapiens
[34] = test system: 786-0; assay: as above; format: cell-based; settings: Homo sapiens
[35] = test system: COLO 205; assay: as above; format: cell-based; settings: Homo sapiens
[36] = test system: ACHN; assay: as above; format: cell-based; settings: Homo sapiens
[37] = test system: TK-10; assay: as above; format: cell-based; settings: Homo sapiens
[38] = test system: HOP-92; assay: as above; format: cell-based; settings: Homo sapiens
[39] = test system: NCI/ADR-RES; assay: as above; format: cell-based; settings: Homo sapiens
[40] = test system: OVCAR-5; assay: as above; format: cell-based; settings: Homo sapiens
[41] = test system: A498; assay: as above; format: cell-based; settings: Homo sapiens
[42] = test system: CAKI-1; assay: as above; format: cell-based; settings: Homo sapiens
[43] = read-out: percent growth inhibition

CC(=O)Nc1ccc(/C=C/C(=O)c2cccc(NCc3csc4ccccc34)c2)cc1 [Compound 5i, (E)-N-(4–(3-(3-((benzo[b]thiophen-3-ylmethyl)amino)phenyl)-3-oxoprop-1-en-1-yl)phenyl) acetamide]
GI50 ([1]; SW-620): 2.6 µM
inhibition at 10 µM ([1]; SW-620, read-out: percent growth inhibition): 123%
GI50 ([2]; RPMI-8226): 2.56 µM
inhibition at 10 µM ([2]; RPMI-8226, read-out: percent growth inhibition): 121%
GI50 ([3]; HCT-15): 2.1 µM
inhibition at 10 µM ([3]; HCT-15, read-out: percent growth inhibition): 142%
GI50 ([4]; BT-549): 4.29 µM
inhibition at 10 µM ([4]; BT-549, read-out: percent growth inhibition): 83.6%
GI50 ([5]; U-251): 2.24 µM
inhibition at 10 µM ([5]; U-251, read-out: percent growth inhibition): 165%
GI50 ([6]; IGROV-1): 4.18 µM
inhibition at 10 µM ([6]; IGROV-1, read-out: percent growth inhibition): 56.9%
GI50 ([7]; OVCAR-3): 3.47 µM
inhibition at 10 µM ([7]; OVCAR-3, read-out: percent growth inhibition): 133%
GI50 ([8]; SK-MEL-5): 5.97 µM
inhibition at 10 µM ([8]; SK-MEL-5, read-out: percent growth inhibition): 85.9%
GI50 ([9]; HT-29): 5.38 µM
inhibition at 10 µM ([9]; HT-29, read-out: percent growth inhibition): 92.8%
GI50 ([10]; SNB-75): 3.39 µM
inhibition at 10 µM ([10]; SNB-75, read-out: percent growth inhibition): 30.5%
GI50 ([11]; HL-60): 3.53 µM
inhibition at 10 µM ([11]; HL-60, read-out: percent growth inhibition): 123%
GI50 [12]: 4.14 µM
inhibition at 10 µM [12, 43]: 79.7%
GI50 ([13]; SNB-19): 3.76 µM
inhibition at 10 µM ([13]; SNB-19, read-out: percent growth inhibition): 98%
GI50 [14]: 2.79 µM
GI50 ([15]; Homo sapiens, 60 cell, read-out: Full panel GI50 mean): 7.06 µM
Full panel Mean GI % ([15]; mean over NCI-60 panel, single dose 10 µM): 82.81%
GI50 ([16]; NCI-H460): 3.84 µM
inhibition at 10 µM ([16]; NCI-H460, read-out: percent growth inhibition): 88.9%
GI50 ([17]; DU-145): 5.45 µM
inhibition at 10 µM ([17]; DU-145, read-out: percent growth inhibition): 74.7%
GI50 ([18]; KM12): 5.12 µM
inhibition at 10 µM ([18]; KM12, read-out: percent growth inhibition): 129%
GI50 ([19]; MCF7): 2.4 µM
inhibition at 10 µM ([19]; MCF7, read-out: percent growth inhibition): 130%
GI50 ([20]; MDA-MB-468): 4 µM
inhibition at 10 µM ([20]; MDA-MB-468, read-out: percent growth inhibition): 97.9%
GI50 ([21]; M14): 10.9 µM
inhibition at 10 µM ([21]; M14, read-out: percent growth inhibition): 57.7%
GI50 ([22]; UACC-62): 6.44 µM
inhibition at 10 µM ([22]; UACC-62, read-out: percent growth inhibition): 76.7%
GI50 ([23]; HCT-116, HCT-116, five-dose screening): 2.02 µM
inhibition at 10 µM ([23]; HCT-116, read-out: percent growth inhibition): 180%
GI50 [24]: 4.49 µM
inhibition at 10 µM [24, 43]: 68.5%
GI50 ([25]; NCI-H226): 7.73 µM
inhibition at 10 µM ([25]; NCI-H226, read-out: percent growth inhibition): 91.9%
GI50 [26]: 3.29 µM
inhibition at 10 µM [26, 43]: 93.3%
GI50 [27]: 2.87 µM
inhibition at 10 µM [27, 43]: 125%
GI50 ([28]; OVCAR-4): 9.52 µM
inhibition at 10 µM ([28]; OVCAR-4, read-out: percent growth inhibition): 64.8%
GI50 ([29]; A549): 17 µM
inhibition at 10 µM ([29]; A549, read-out: percent growth inhibition): 45.8%
inhibition at 10 µM [30]: 131%
GI50 ([31]; MDA-MB-435): 4.37 µM
inhibition at 10 µM ([31]; MDA-MB-435, read-out: percent growth inhibition): 49.2%
GI50 ([32]; SF-268): 12.7 µM
inhibition at 10 µM ([32]; SF-268, read-out: percent growth inhibition): 80%
GI50 [33]: 9.28 µM
inhibition at 10 µM [33, 43]: 55.5%
GI50 ([34]; 786-0): 11.4 µM
inhibition at 10 µM ([34]; 786-0, read-out: percent growth inhibition): 81.8%
GI50 ([35]; COLO 205): 17 µM
inhibition at 10 µM ([35]; COLO 205, read-out: percent growth inhibition): 19.8%
GI50 [36]: 7.35 µM
inhibition at 10 µM [36, 43]: 51.4%
GI50 ([37]; TK-10): 17.6 µM
inhibition at 10 µM ([37]; TK-10, read-out: percent growth inhibition): 23.9%
GI50 ([38]; HOP-92): 18.3 µM
inhibition at 10 µM ([38]; HOP-92, read-out: percent growth inhibition): 12.3%
GI50 [39]: 2.79 µM
inhibition at 10 µM [39, 43]: 117%
GI50 ([40]; OVCAR-5): 13 µM
inhibition at 10 µM ([40]; OVCAR-5, read-out: percent growth inhibition): 30.4%
GI50 ([41]; A498): 17.4 µM
inhibition at 10 µM ([41]; A498, read-out: percent growth inhibition): 9.33%
GI50 ([42]; CAKI-1): 18.4 µM
inhibition at 10 µM ([42]; CAKI-1, read-out: percent growth inhibition): 57.7%
